Data on 15 compounds can be found in US20220043347A1, “ACTINIC RAY-SENSITIVE OR RADIATION-SENSITIVE RESIN COMPOSITION, RESIST FILM, PATTERN FORMING METHOD, AND METHOD FOR MANUFACTURING ELECTRONIC DEVICE” (FUJIFILM Corporation, priority 2019, published 2022).

The nature of this data set: Acid dissociation constant (pKa) determined by computation (ACD/Labs Software Package 1; Gaussian 16 DFT where not calculable). Conditions: acid generated from photoacid generator B. An excerpt: In the present specification, an acid dissociation constant (pKa) represents a pKa in an aqueous solution, and is specifically a value determined by computation from a value based on a Hammett's substituent constant and database of publicly known literature values, using the following software package 1. Any of the pKa values described in the present specification indicate values determined by computation using the software package.
Software Package 1: Advanced Chemistry Development (ACD/Labs) Software V 8.14 for Solaris (1994-2007 ACD/Labs).
As described above, the pKa in the present specification refers to a value determined by computation from a value based on a Hammett's substituent constant and database of publicly known literature values, using the software package 1, but in a case where the pKa cannot be calculated by the method, a value obtained by Gaussian 16 based on density functional theory (DFT) shall be adopted.
In addition, the pKa in the present specification refers to a “pKa in an aqueous solution” as described above, but in a case where the pKa in an aqueous solution cannot be calculated, a “pKa in a dimethyl sulfoxide (DMSO) solution” shall be adopted.
Furthermore, in the measurement of the acid dissociation constant (pKa) of an acid generated from the photoacid generator B, specifically, the pKa is a value determined by subjecting a compound formed by substituting each cationic moiety in the compounds B-1 to B-29 with […](for example, in a case of the compound B-1, a compound formed by substituting the triphenylsulfonium cation with H^+) to computation from a value based on a Hammett's substituent constant and database of publicly known literature values, using Software Package 1 of ACD/Labs, as described above. In addition, in a case where pKa could not be calculated by the method, a value obtained by Gaussian 16 based on density functional theory (DFT) was adopted.
In the following table, “pKa1” represents an acid dissociation constant of the first stage, “pKa2” represents an acid dissociation constant of the second stage, and “pKa3” represents an acid dissociation constant of the third stage. A smaller value of pKa means a higher acidity. […]

As to `CC1(C)C2CCC1(CS(=O)(=O)[N-]S(=O)(=O)C(F)(F)C(F)(F)C(F)(F)S(=O)(=O)[O-])C(=O)C2.Cc1ccc([S+](c2ccccc2)c2ccccc2)cc1.Cc1ccc([S+](c2ccccc2)c2ccccc2)cc1` (stereo not drawn) [Compound B-16], the “Difference between acid dissociation constant a1 and acid dissociation constant a2” value is 0.74.

For `O=C(COC(=O)C(F)(F)S(=O)(=O)O)NC(=O)C(F)(F)F` [Compound B-4], the “Difference between acid dissociation constant a1 and acid dissociation constant a2” value is recorded as 9.23. With `O=C(O)C(F)(F)C(F)(F)C(F)(F)C(=O)OC12CC3CC(CC(COC(=O)C(F)(F)S(=O)(=O)O)(C3)C1)C2` [Compound B-3] the figure was 2.92; with `O=C([O-])CCCOC(=O)C(CS(=O)(=O)[O-])C(F)(F)F.O=S(=O)(c1ccc([S+](c2ccccc2)c2ccccc2)cc1)C1CCCCC1.O=S(=O)(c1ccc([S+](c2ccccc2)c2ccccc2)cc1)C1CCCCC1` [Compound B-14], 3.63. Regarding `O=C(NS(=O)(=O)C(F)(F)C(F)(F)C(F)(F)S(=O)(=O)O)c1ccccc1I` [Compound B-22], the “Difference between acid dissociation constant a1 and acid dissociation constant a2” value was 2.97. With `CC(C)(C#N)C(=O)[N-]S(=O)(=O)C(F)(F)C(F)(F)C(F)(F)S(=O)(=O)[N-]S(C)(=O)=O.Cc1ccc(-[s+]2c3ccccc3c3ccccc32)cc1.Cc1ccc(-[s+]2c3ccccc3c3ccccc32)cc1` [Compound B-15] the figure was 2.79; with `O=C(CC(F)(F)F)[N-]S(=O)(=O)C(F)(F)C(F)(F)C(F)(F)S(=O)(=O)[O-].c1ccc([S+](c2ccccc2)c2ccccc2)cc1.c1ccc([S+](c2ccccc2)c2ccccc2)cc1` [Compound B-1], 3.17; with `CS(=O)(=O)[N-]C(=O)C(F)(F)C(F)(F)C(F)(F)C(=O)OCC(F)S(=O)(=O)[O-].c1ccc([S+](c2ccccc2)c2ccccc2)cc1.c1ccc([S+](c2ccccc2)c2ccccc2)cc1` (stereo not drawn) [Compound B-5], 2.55. As for `CC(C)(C)OC(=O)c1cc(OS(=O)(=O)C(F)(F)S(=O)(=O)[O-])cc(C(=O)[N-]S(=O)(=O)C(F)(F)S(=O)(=O)[O-])c1.Cc1cc(C)cc([S+](c2cc(C)cc(C)c2)c2cc(C(F)(F)F)cc(C(F)(F)F)c2)c1.Cc1cc(C)cc([S+](c2cc(C)cc(C)c2)c2cc(C(F)(F)F)cc(C(F)(F)F)c2)c1.Cc1cc(C)cc([S+](c2cc(C)cc(C)c2)c2cc(C(F)(F)F)cc(C(F)(F)F)c2)c1` [Compound B-26], the “Difference between acid dissociation constant a1 and acid dissociation constant a2” value was 4.99.

As to `CCCCC(CC)C(=O)NS(=O)(=O)C(F)(F)C(F)(F)C(F)(F)S(=O)(=O)NS(=O)(=O)C(F)(F)F` (stereo not drawn) [Compound B-12], the “Difference between acid dissociation constant a1 and acid dissociation constant a2” value is reported as 11.4. In the case of `CS(=O)(=O)NS(=O)(=O)CCCOC(=O)C(F)(F)S(=O)(=O)O` [Compound B-11], the “Difference between acid dissociation constant a1 and acid dissociation constant a2” value is on record as 3.23. To `Cc1cc([S+](c2ccc(C(F)(F)F)cc2)c2ccc(C(F)(F)F)cc2)cc(C)c1OCC(=O)OC(C)(C)C.Cc1cc([S+](c2ccc(C(F)(F)F)cc2)c2ccc(C(F)(F)F)cc2)cc(C)c1OCC(=O)OC(C)(C)C.Cc1cc([S+](c2ccc(C(F)(F)F)cc2)c2ccc(C(F)(F)F)cc2)cc(C)c1OCC(=O)OC(C)(C)C.O=C([N-]S(=O)(=O)C(F)(F)C(F)(F)C(F)(F)S(=O)(=O)[O-])c1ccc(OS(=O)(=O)C(F)(F)C(F)(F)C(F)(F)S(=O)(=O)[O-])cc1` [Compound B-25] belongs 2.53; to `COc1ccc([S+](c2ccccc2)c2ccccc2)cc1.COc1ccc([S+](c2ccccc2)c2ccccc2)cc1.O=S(=O)([O-])C(F)(F)C(F)(F)C(F)(F)S(=O)(=O)[N-]C1CCCCC1` [Compound B-2], 9.59; to `CC1(OC(=O)c2cc(C(=O)NS(=O)(=O)C(F)(F)C(F)(F)C(F)(F)S(=O)(=O)NS(=O)(=O)C(F)(F)F)cc(C(=O)OC3(C)CCCC3)c2)CCCC1` [Compound B-23], 10.13. Consider `COc1ccc([S+](c2ccccc2)c2ccccc2)cc1.COc1ccc([S+](c2ccccc2)c2ccccc2)cc1.O=C(OCCCS(=O)(=O)[O-])C(F)(F)S(=O)(=O)[O-]` [Compound B-6], for which the “Difference between acid dissociation constant a1 and acid dissociation constant a2” value was 4.82.
